Where two headings read alike, the source gives them in different places.
Assays:
[1] = molecular target: T1, Drosophila OR10a (Drosophila melanogaster, UniProt Q9VYZ1); experiment: Calcium ion fluorescence (GCaMP6) assay, OR10a stable HEK293 cell line; assay type: cell-based
T1 construct: expressed in transfected cells
T1 sequence (Q9VYZ1 1-406): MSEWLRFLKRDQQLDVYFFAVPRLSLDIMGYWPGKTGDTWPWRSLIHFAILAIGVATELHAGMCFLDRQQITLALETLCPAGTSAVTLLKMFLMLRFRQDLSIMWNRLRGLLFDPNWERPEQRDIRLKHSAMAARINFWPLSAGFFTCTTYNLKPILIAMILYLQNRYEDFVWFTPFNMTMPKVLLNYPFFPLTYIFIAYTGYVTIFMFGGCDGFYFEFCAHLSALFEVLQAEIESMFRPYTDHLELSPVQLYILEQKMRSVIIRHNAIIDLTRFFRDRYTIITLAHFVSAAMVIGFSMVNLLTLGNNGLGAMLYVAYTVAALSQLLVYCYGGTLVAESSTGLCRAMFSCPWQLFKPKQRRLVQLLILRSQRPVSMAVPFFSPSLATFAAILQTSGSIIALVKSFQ
T1 sequence (Q9VNB5 1-486 partner): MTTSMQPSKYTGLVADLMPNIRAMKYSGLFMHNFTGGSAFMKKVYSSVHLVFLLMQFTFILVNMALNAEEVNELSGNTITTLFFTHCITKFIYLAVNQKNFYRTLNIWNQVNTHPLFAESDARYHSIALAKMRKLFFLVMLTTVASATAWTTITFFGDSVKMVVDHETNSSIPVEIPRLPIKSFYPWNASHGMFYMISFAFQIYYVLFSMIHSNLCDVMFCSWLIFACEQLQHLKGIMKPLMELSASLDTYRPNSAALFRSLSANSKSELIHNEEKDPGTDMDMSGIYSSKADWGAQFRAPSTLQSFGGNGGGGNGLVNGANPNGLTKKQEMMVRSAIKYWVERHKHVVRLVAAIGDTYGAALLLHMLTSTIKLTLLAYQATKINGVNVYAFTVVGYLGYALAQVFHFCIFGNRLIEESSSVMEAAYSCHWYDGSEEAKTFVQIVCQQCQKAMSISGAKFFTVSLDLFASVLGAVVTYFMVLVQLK
How it was run: (§1)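 HEK293 lines stably expressing each Drosophila OR with GCaMP6, doxycycline-induced (1 μg/mL) 48 or 72 h. Fluorescence recorded 5 s baseline then 30 s after VOC injection at pH 7.3; ΔF=(FMAX−F0)/F0, normalized to 50 µM VUAA1 response per line, triplicate wells averaged; concentration series 0.01–100 μM.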

[2] = molecular target: T2, Drosophila OR49b (Drosophila melanogaster, UniProt Q9V6H2); experiment: cell-based; conditions: for activation at 1 µM / activation at 10 µM / activation at 100 µM: HEK293; for Average response: mean of biological replicates
T2 construct: expressed in transfected cells
T2 sequence (Q9V6H2 1-375): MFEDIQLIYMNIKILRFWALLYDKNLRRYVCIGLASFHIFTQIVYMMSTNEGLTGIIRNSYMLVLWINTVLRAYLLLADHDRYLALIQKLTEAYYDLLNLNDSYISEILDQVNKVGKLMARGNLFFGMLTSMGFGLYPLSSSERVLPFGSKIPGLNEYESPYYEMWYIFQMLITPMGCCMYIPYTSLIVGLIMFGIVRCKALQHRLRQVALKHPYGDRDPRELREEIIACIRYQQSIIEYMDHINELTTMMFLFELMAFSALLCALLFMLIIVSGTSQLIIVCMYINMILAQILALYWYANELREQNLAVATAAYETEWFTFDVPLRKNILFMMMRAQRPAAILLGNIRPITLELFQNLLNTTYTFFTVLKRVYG
T2 sequence (Q9VNB5 1-486 partner): T1 sequence (Q9VNB5 1-486 partner)
How it was run: as §1

[3] = HEK293, read-out: OR10a Average response (VUAA1-normalized), 1 μM VOC, 50 μM VUAA1 = 1, responses not exceeding 0.05 considered 0
[4] = HEK293, read-out: OR10a Average response (VUAA1-normalized), 10 μM VOC, 50 μM VUAA1 = 1, responses not exceeding 0.05 considered 0
[5] = HEK293, read-out: OR10a Average response (VUAA1-normalized), 100 μM VOC, 50 μM VUAA1 = 1, responses not exceeding 0.05 considered 0
[6] = HEK293, read-out: OR10a response (VUAA1-normalized response), VOC concentration 1 μM
[7] = HEK293, read-out: OR10a response (VUAA1-normalized response), VOC concentration 10 μM
[8] = HEK293, read-out: OR10a response (VUAA1-normalized response), VOC concentration 100 μM
[9] = ligand concentration 1 (unit not given), threshold 0.05, below shown as 0
[10] = ligand concentration 10 (unit not given), threshold 0.05, below shown as 0
[11] = ligand concentration 100 (unit not given), threshold 0.05, below shown as 0
[12] = VOC concentration 1 μM, read-out: OR49b response (VUAA1-normalized response)
[13] = VOC concentration 10 μM, read-out: OR49b response (VUAA1-normalized response)
[14] = VOC concentration 100 μM, read-out: OR49b response (VUAA1-normalized response)
[15] = OR49b cell line, odorant cc. 1 µM
[16] = OR49b cell line, odorant cc. 10 µM
[17] = OR49b cell line, odorant cc. 100 µM
[18] = HEK293, 1 μM VOC, 50 μM VUAA1 = 1, responses not exceeding 0.05 considered 0, read-out: OR10a Average response (VUAA1-normalized)
[19] = HEK293, 10 μM VOC, 50 μM VUAA1 = 1, responses not exceeding 0.05 considered 0, read-out: OR10a Average response (VUAA1-normalized)
[20] = HEK293, 100 μM VOC, 50 μM VUAA1 = 1, responses not exceeding 0.05 considered 0, read-out: OR10a Average response (VUAA1-normalized)

Row | SMILES | activation at 1 µM [1, 6] [%] | activation at 10 µM [1, 7] [%] | activation at 100 µM [1, 8] [%] | DF norm AVERAGE OR10a [1, 9] | DF norm AVERAGE OR10a [1, 10] | DF norm AVERAGE OR10a [1, 11] | activation at 1 µM [2, 12] [%] | activation at 10 µM [2, 13] [%] | activation at 100 µM [2, 14] [%] | Average response [2, 15] | Average response [2, 16] | Average response [2, 17] | DF norm AVERAGE OR49b [2, 9] | DF norm AVERAGE OR49b [2, 10] | DF norm AVERAGE OR49b [2, 11] | DF norm AVERAGE OR49b [2] | activation at 1 µM [1, 18] [%] | activation at 10 µM [1, 19] [%] | activation at 100 µM [1, 20] [%] | other results
1 | CC(=O)OCC(C)C [isobutyl acetate] | 6.57 | 0 | 18 | 0.06574 | 0 | 0.1821 | 5 | 0 | 0 | 0.05 | 0.0342 | 0.00 | 0.05093 | 0 | 0 |  |  |  |  | activation at 1 µM [1, 3]: 7%; activation at 10 µM [1, 4]: 5%; activation at 100 µM [1, 5]: 18%
2 | CC1=CCC[C@@]2(C)[C@@H]3CC[C@]12CC3(C)C [(−)-α-neoclovene] |  |  |  |  |  |  |  |  |  | 0.00 | 0.00 | 0.00 |  |  |  | 0 |  |  |  | OR10a Average response (VUAA1-normalized) ([1]; 1 μM VOC, 50 μM VUAA1 = 1, responses not exceeding 0.05 considered 0): 0.00; OR10a Average response (VUAA1-normalized) ([1]; 10 μM VOC, 50 μM VUAA1 = 1, responses not exceeding 0.05 considered 0): 0.13; OR10a Average response (VUAA1-normalized) ([1]; 100 μM VOC, 50 μM VUAA1 = 1, responses not exceeding 0.05 considered 0): 0.12; OR10a response (VUAA1-normalized response) ([1]; VOC concentration 1 μM): 0.00; OR10a response (VUAA1-normalized response) ([1]; VOC concentration 10 μM): 0.13; OR10a response (VUAA1-normalized response) ([1]; VOC concentration 100 μM): 0.12; OR49b response (VUAA1-normalized response) ([2]; VOC concentration 1 μM): 0.00; OR49b response (VUAA1-normalized response) ([2]; VOC concentration 10 μM): 0.00; OR49b response (VUAA1-normalized response) ([2]; VOC concentration 100 μM): 0.00
3 | C=C1CC/C=C(\C)CC[C@@H]2[C@@H]1CC2(C)C [(-)-trans-caryophyllene] | 14 | 20 | 6.61 |  |  |  | 0 | 0 | 0 | 0.00 | 0.00 | 0.00 |  |  |  | 0 | 14 | 20 | 6.61 | 
4 | COc1cccc(OC)c1 [1,3-dimethoxy benzene] | 0 | 0 | 0 |  |  |  | 0 | 0 | 0 | 0.00 | 0.00 | 0.00 |  |  |  | 0 | 0 | 0 | 0 | DF norm AVERAGE OR10a [1]: 0
5 | C=CC(O)C/C=C\CC (stereo not drawn) [(5Z)-octa-1,5-dien-3-ol] | 0 | 0 | 0 |  |  |  | 0 | 0 | 0 | 0.00 | 0.04 | 0.00 |  |  |  | 0 | 0 | 2.25 | 0 | DF norm AVERAGE OR10a [1]: 0
6 | CCCC(=O)OCC [ethyl butyrate] | 0 | 0 | 0 | 0 | 0 | 0 | 0 | 0 | 0 | 0.00 | 0.00 | 0.00 | 0 | 0 | 0 |  | 0 | 2.38 | 2.76 | 
7 | Cc1cccc(O)c1 [3-methylphenol] | 9 | 6 | 13 |  |  |  | 0 | 13 | 43 | 0.00 | 0.13 | 0.43 |  |  |  |  | 9 | 6 | 13 | activation at 1 µM ([2]; 1 μM VOC, 50 μM VUAA1 = 1, read-out: OR49b Average response (VUAA1-normalized)): 0%; activation at 10 µM ([2]; 10 μM VOC, 50 μM VUAA1 = 1, read-out: OR49b Average response (VUAA1-normalized)): 13%; activation at 100 µM ([2]; 100 μM VOC, 50 μM VUAA1 = 1, read-out: OR49b Average response (VUAA1-normalized)): 43%
8 | C=CCc1ccc(O)c(OC)c1 [eugenol] | 8.49 | 6 | 0 | 0.08485 | 0.05743 | 0 | 0 | 0 | 0 | 0.05 | 0.00 | 0.00 | 0 | 0 | 0 |  | 8.49 | 6 | 0 | 
9 | C=C1CCC2(C(C)C)CC12 (stereo not drawn) [sabinene] |  |  |  | 0 | 0 | 0 |  |  |  | 0.00 | 0.00 | 0.0368 | 0 | 0 | 0 |  |  |  |  | activation at 1 µM [1, 3]: 0%; activation at 10 µM [1, 4]: 0%; activation at 100 µM [1, 5]: 3.23%; OR10a response (VUAA1-normalized) at 1 μM ([1]; OR10a cell line, VOC concentration 1 μM): 0.00; OR10a response (VUAA1-normalized) at 10 μM ([1]; OR10a cell line, VOC concentration 10 μM): 0.00; OR10a response (VUAA1-normalized) at 100 μM ([1]; OR10a cell line, VOC concentration 100 μM): 0.00; OR49b response (VUAA1-normalized) at 1 μM ([2]; OR49b cell line, VOC concentration 1 μM): 0.00; OR49b response (VUAA1-normalized) at 10 μM ([2]; OR49b cell line, VOC concentration 10 μM): 0.00; OR49b response (VUAA1-normalized) at 100 μM ([2]; OR49b cell line, VOC concentration 100 μM): 0.00

Source: article PMC10709440, “High-throughput ligand profile characterization in novel cell lines expressing seven heterologous insect olfactory receptors for the detection of volatile plant biomarkers” (Scientific Reports, 2023)
